{"source": "ChEMBL document CHEMBL3885861", "about": "“Open TG-GATES”", "species_on_record": "Rattus norvegicus", "experiment": "Open TG-GATES - Regimen: Daily Repeat", "type": "toxicity, organism-based, Sprague-Dawley", "parameters": "regimen Daily Repeat, gender Male, age 6 weeks", "conditions": "in vivo, po, 100 mg/kg, route gavage, dose level Low; for APTT / Bas / Eos / Fbg / Hb / Ht / Lym / MCH / MCHC / MCV / Mono / Neu / PT / Plat / RBC / Ret / WBC: tissue Blood", "key": {"[1]": {"conditions": "72 h, tissue Kidney, time 3 day"}, "[2]": {"conditions": "72 h, tissue Plasma, time 3 day"}}, "data": [{"smiles": "CC[C@@H](CO)NCCN[C@@H](CC)CO", "note": "[ETHAMBUTOL]", "values": [{"measurement": "TERMINAL_BW", "setting": "72 h, time 3 day", "value": 243.1, "unit": "g"}, {"measurement": "APTT", "setting": "72 h, time 3 day", "value": 21.1, "unit": "s"}, {"measurement": "Bas", "setting": "72 h, time 3 day", "value": 0, "unit": "%"}, {"measurement": "Eos", "setting": "72 h, time 3 day", "value": 1, "unit": "%"}, {"measurement": "Fbg", "setting": "72 h, time 3 day", "value": 341.6, "unit": "mg/dL"}, {"measurement": "Hb", "setting": "72 h, time 3 day", "value": 13.4, "unit": "g/dL"}, {"measurement": "Ht", "setting": "72 h, time 3 day", "value": 38.6, "unit": "%"}, {"measurement": "Lym", "setting": "72 h, time 3 day", "value": 80.4, "unit": "%"}, {"measurement": "MCH", "setting": "72 h, time 3 day", "value": 21.4, "unit": "pg"}, {"measurement": "MCHC", "setting": "72 h, time 3 day", "value": 34.9, "unit": "%"}, {"measurement": "MCV", "setting": "72 h, time 3 day", "value": 61.5, "unit": "fL"}, {"measurement": "Mono", "setting": "72 h, time 3 day", "value": 3, "unit": "%"}, {"measurement": "Neu", "setting": "72 h, time 3 day", "value": 14.2, "unit": "%"}, {"measurement": "PT", "setting": "72 h, time 3 day", "value": 15.8, "unit": "s"}, {"measurement": "Plat", "setting": "72 h, time 3 day", "value": 123.9, "unit": "x10_4/uL"}, {"measurement": "RBC", "setting": "72 h, time 3 day", "value": 627.8, "unit": "x10_4/ul"}, {"measurement": "Ret", "setting": "72 h, time 3 day", "value": 6.4, "unit": "%"}, {"measurement": "WBC", "setting": "72 h, time 3 day", "value": 92.5, "unit": "x10_2/uL"}, {"measurement": "KIDNEY_L", "setting": "[1]", "value": 1.1, "unit": "g"}, {"measurement": "KIDNEY_R", "setting": "[1]", "value": 1, "unit": "g"}, {"measurement": "KIDNEY_TOTAL", "setting": "[1]", "value": 2.1, "unit": "g"}, {"measurement": "LIVER", "setting": "72 h, tissue Liver, time 3 day", "value": 12, "unit": "g"}, {"measurement": "A/G", "setting": "[2]", "value": 1.2}, {"measurement": "ALP", "setting": "[2]", "value": 1628.8, "unit": "IU/L"}, {"measurement": "ALT", "setting": "[2]", "value": 45.2, "unit": "IU/L"}, {"measurement": "AST", "setting": "[2]", "value": 72.4, "unit": "IU/L"}, {"measurement": "BUN", "setting": "[2]", "value": 17.4, "unit": "mg/dL"}, {"measurement": "CRE", "setting": "[2]", "value": 0.2, "unit": "mg/dL"}, {"measurement": "Ca", "setting": "[2]", "value": 10.8, "unit": "mg/dL"}, {"measurement": "Cl", "setting": "[2]", "value": 107, "unit": "meq/L"}, {"measurement": "DBIL", "setting": "[2]", "value": 0, "unit": "mg/dL"}, {"measurement": "GLC", "setting": "[2]", "value": 187, "unit": "mg/dL"}, {"measurement": "IP", "setting": "[2]", "value": 7.2, "unit": "mg/dL"}, {"measurement": "K", "setting": "[2]", "value": 4.1, "unit": "meq/L"}, {"measurement": "LDH", "setting": "[2]", "value": 158.4, "unit": "IU/L"}, {"measurement": "Na", "setting": "[2]", "value": 140.8, "unit": "meq/L"}, {"measurement": "PL", "setting": "[2]", "value": 156.4, "unit": "mg/dL"}, {"measurement": "RALB", "setting": "[2]", "value": 3.1, "unit": "g/dL"}, {"measurement": "TBIL", "setting": "[2]", "value": 0.016, "unit": "mg/dL"}, {"measurement": "TC", "setting": "[2]", "value": 82.2, "unit": "mg/dL"}, {"measurement": "TG", "setting": "[2]", "value": 117.8, "unit": "mg/dL"}, {"measurement": "TP", "setting": "[2]", "value": 5.6, "unit": "g/dL"}, {"measurement": "gamma-GTP", "setting": "[2]", "value": 1.6, "unit": "IU/L"}, {"measurement": "TERMINAL_BW", "setting": "[…], time 7 day", "value": 272, "unit": "g"}, {"measurement": "TERMINAL_BW", "setting": "[…], time 14 day", "value": 312.5, "unit": "g"}, {"measurement": "TERMINAL_BW", "setting": "[…], time 28 day", "value": 351.2, "unit": "g"}, {"measurement": "APTT", "setting": "[…], time 7 day", "value": 22.4, "unit": "s"}, {"measurement": "Bas", "setting": "[…], time 7 day", "value": 0, "unit": "%"}, {"measurement": "Eos", "setting": "[…], time 7 day", "value": 0.8, "unit": "%"}, {"measurement": "Fbg", "setting": "[…], time 7 day", "value": 340.4, "unit": "mg/dL"}, {"measurement": "Hb", "setting": "[…], time 7 day", "value": 13.9, "unit": "g/dL"}, {"measurement": "Ht", "setting": "[…], time 7 day", "value": 40.1, "unit": "%"}, {"measurement": "Lym", "setting": "[…], time 7 day", "value": 80.6, "unit": "%"}, {"measurement": "MCH", "setting": "[…], time 7 day", "value": 21.4, "unit": "pg"}, {"measurement": "MCHC", "setting": "[…], time 7 day", "value": 34.6, "unit": "%"}, {"measurement": "MCV", "setting": "[…], time 7 day", "value": 62, "unit": "fL"}, {"measurement": "Mono", "setting": "[…], time 7 day", "value": 2.6, "unit": "%"}, {"measurement": "Neu", "setting": "[…], time 7 day", "value": 14.8, "unit": "%"}, {"measurement": "PT", "setting": "[…], time 7 day", "value": 15.8, "unit": "s"}, {"measurement": "Plat", "setting": "[…], time 7 day", "value": 125.3, "unit": "x10_4/uL"}, {"measurement": "RBC", "setting": "[…], time 7 day", "value": 646.8, "unit": "x10_4/ul"}, {"measurement": "Ret", "setting": "[…], time 7 day", "value": 5.9, "unit": "%"}, {"measurement": "WBC", "setting": "[…], time 7 day", "value": 109.9, "unit": "x10_2/uL"}, {"measurement": "APTT", "setting": "[…], time 14 day", "value": 22.7, "unit": "s"}, {"measurement": "Bas", "setting": "[…], time 14 day", "value": 0, "unit": "%"}, {"measurement": "Eos", "setting": "[…], time 14 day", "value": 1.2, "unit": "%"}, {"measurement": "Fbg", "setting": "[…], time 14 day", "value": 318.2, "unit": "mg/dL"}, {"measurement": "Hb", "setting": "[…], time 14 day", "value": 14, "unit": "g/dL"}, {"measurement": "Ht", "setting": "[…], time 14 day", "value": 40.9, "unit": "%"}, {"measurement": "Lym", "setting": "[…], time 14 day", "value": 80, "unit": "%"}, {"measurement": "MCH", "setting": "[…], time 14 day", "value": 20.5, "unit": "pg"}, {"measurement": "MCHC", "setting": "[…], time 14 day", "value": 34.2, "unit": "%"}, {"measurement": "MCV", "setting": "[…], time 14 day", "value": 60, "unit": "fL"}, {"measurement": "Mono", "setting": "[…], time 14 day", "value": 2.6, "unit": "%"}, {"measurement": "Neu", "setting": "[…], time 14 day", "value": 15, "unit": "%"}, {"measurement": "PT", "setting": "[…], time 14 day", "value": 16.9, "unit": "s"}, {"measurement": "Plat", "setting": "[…], time 14 day", "value": 110.4, "unit": "x10_4/uL"}, {"measurement": "RBC", "setting": "[…], time 14 day", "value": 681.8, "unit": "x10_4/ul"}, {"measurement": "Ret", "setting": "[…], time 14 day", "value": 4.5, "unit": "%"}, {"measurement": "WBC", "setting": "[…], time 14 day", "value": 127.4, "unit": "x10_2/uL"}, {"measurement": "APTT", "setting": "[…], time 28 day", "value": 23.2, "unit": "s"}, {"measurement": "Bas", "setting": "[…], time 28 day", "value": 0, "unit": "%"}, {"measurement": "Eos", "setting": "[…], time 28 day", "value": 1, "unit": "%"}, {"measurement": "Fbg", "setting": "[…], time 28 day", "value": 288.8, "unit": "mg/dL"}, {"measurement": "Hb", "setting": "[…], time 28 day", "value": 14.5, "unit": "g/dL"}, {"measurement": "Ht", "setting": "[…], time 28 day", "value": 41.9, "unit": "%"}]}]}
